Assay results reported in the NIST ThermoML archive (doi:10.1016/j.jct.2012.03.020).

Tests used:
[1] = mn = molality of the nth substance listed, in mol/kg; conditions: 101 kPa, Liquid, Pycnometric method
[2] = refractive index (Na D-line) (dimensionless); mn = molality of the nth substance listed, in mol/kg; conditions: 101 kPa, Liquid, Standard Abbe refractometry

Cc1ccc(C(=O)N(O)c2ccccc2)cc1[N+](=O)[O-] [N-hydroxy-4-methyl-3-nitro-N-phenylbenzamide] + CN(C)C=O
Conditions | mass density, 298.15 K [kg/m3] | mass density, 303.15 K [kg/m3] | mass density, 308.15 K [kg/m3] | mass density, 313.15 K [kg/m3] | refractive index, 298.15 K | refractive index, 303.15 K | refractive index, 308.15 K | refractive index, 313.15 K
[1], m1 = 0.0184 | 947.8 | 942.4 | 938.4 | 933.1 | – | – | – | –
[1], m1 = 0.0368 | 950.2 | 944.9 | 941 | 935.8 | – | – | – | –
[1], m1 = 0.0551 | 952.6 | 947.4 | 943.5 | 938.4 | – | – | – | –
[1], m1 = 0.0735 | 954.8 | 949.7 | 945.9 | 940.9 | – | – | – | –
[1], m1 = 0.0919 | 957 | 952 | 948.2 | 943.3 | – | – | – | –
[1], m1 = 0.1103 | 959.1 | 954.2 | 950.4 | 945.7 | – | – | – | –
[1], m1 = 0.1286 | 961.1 | 956.3 | 952.6 | 947.9 | – | – | – | –
[1], m1 = 0.147 | 963.1 | 958.4 | 954.7 | 950.1 | – | – | – | –
[1], m1 = 0.1654 | 965 | 960.4 | 956.7 | 952.2 | – | – | – | –
[1], m1 = 0.1838 | 966.9 | 962.3 | 958.7 | 954.3 | – | – | – | –
[2], m1 = 0.0184 | – | – | – | – | 1.4391 | 1.435 | 1.432 | 1.4299
[2], m1 = 0.0368 | – | – | – | – | 1.4406 | 1.437 | 1.4343 | 1.432
[2], m1 = 0.0551 | – | – | – | – | 1.442 | 1.439 | 1.436 | 1.434
[2], m1 = 0.0735 | – | – | – | – | 1.444 | 1.441 | 1.438 | 1.4354
[2], m1 = 0.0919 | – | – | – | – | 1.447 | 1.4441 | 1.44 | 1.437
[2], m1 = 0.1103 | – | – | – | – | 1.4483 | 1.4455 | 1.442 | 1.439
[2], m1 = 0.1286 | – | – | – | – | 1.4496 | 1.4466 | 1.443 | 1.441
[2], m1 = 0.147 | – | – | – | – | 1.452 | 1.448 | 1.446 | 1.4429
[2], m1 = 0.1654 | – | – | – | – | 1.4535 | 1.45 | 1.448 | 1.444
[2], m1 = 0.1838 | – | – | – | – | 1.455 | 1.452 | 1.4494 | 1.445
